Structures can show the parent of a compound that is named as a salt.
How the values were obtained:
[1] = Physical stability of solid forms under humidity, temperature or vacuum stress (XRPD/observation); type: physicochemical
Protocol: XRPD figures were generated using SSCI Pattern Match 3.0.4, unvalidated software. XRPD patterns were collected with a PANalytical X'Pert PRO MPD or a PANalytical Empyrean diffractometer using an incident beam of Cu radiation produced using an Optix long, fine-focus source. An elliptically graded multilayer mirror was used to focus Cu Kα X-rays through the specimen and onto the detector. Prior to the analysis, a silicon specimen (NIST SRM 640e or NIST SRM 6400 was analyzed to verify the observed position of the Si 111 peak is consistent with the NIST-certified position. A specimen of the sample was sandwiched between 3-μm-thick films and analyzed in transmission geometry. A beam-stop, short antiscatter extension, and antiscatter knife edge were used to minimize the background generated by air. Soller slits for the incident and diffracted beams were used to minimize broadening and asymmetry from axial divergence. Diffraction patterns were collected using a scanning position-sensitive detector (X'Celerator) located 240 mm from the specimen and Data Collector software v. 2.2b or v. 5.5.

[2] = Binary interconversion slurry experiments between Compound I Form I and Compound I Material II; type: physicochemical; settings: room temperature slurries
Text: Binary interconversion slurry experiments between Compound I Form I and Compound I Material II in different solvent systems at room temperature are summarized in Table 2. Saturated solutions were generated and then added to mixtures composed of approximately equivalent quantities of the two polymorphs. The samples were slurried for several days and the solids harvested and analyzed by XRPD.

[3] = Dynamic vapor sorption/desorption (DVS) isotherm; type: physicochemical; settings: for hygroscopicity indicated by DVS isotherm: 5% to 95% RH, 10% RH increments, nitrogen purge; for weight gain and loss through the sorption/desorption cycle / weight gain through the sorption cycle / weight loss upon desorption: DVS; for weight gain and loss through the sorption/desorption cycle / weight gain through the sorption cycle: 5 to 95% RH; for material recovered from the DVS experiment, by XRPD: after DVS sorption/desorption cycle; for weight loss upon desorption: 95 to 5% RH
Protocol: Automated vapor sorption (VS) data were collected on a Surface Measurement System DVS Intrinsic instrument or a VTI SGA-100 instrument. Samples were not dried prior to analysis. Sorption and desorption data were collected over a range from 5% to 95% relative humidity (RH) at 10% RH increments under a nitrogen purge. The equilibrium criterion used for analysis was less than 0.0100% weight change in 5 minutes with a maximum equilibration time of 3 hours. Data were not corrected for the initial moisture content of the samples.

physchem = settings: water

Compound: CCS(=O)(=O)O.O=Cc1c(O)cccc1OC[C@@H]1COCCN1C(=O)c1cccnc1CCO [Compound I Esylate Form A, (S)-2-hydroxy-6-((4-(2-(2-hydroxyethyl)nicotinoyl)morpholin-3-yl)methoxy)benzaldehyde esylate]
- physical stability under vacuum (XRPD) ([1]; 44° C. under vacuum): not physically stable

Compound: CCS(=O)(=O)O.O=Cc1c(O)cccc1OC[C@@H]1COCCN1C(=O)c1cccnc1CCO [Compound I Esylate Form B, (S)-2-hydroxy-6-((4-(2-(2-hydroxyethyl)nicotinoyl)morpholin-3-yl)methoxy)benzaldehyde esylate]
- physical stability under high humidity ([1]; 90% relative humidity, ambient temperature): deliquesced

Compound: O=Cc1c(O)cccc1OC[C@@H]1COCCN1C(=O)c1cccnc1CCO [Compound I Form I, (S)-2-hydroxy-6-((4-(2-(2-hydroxyethyl)nicotinoyl)morpholin-3-yl)methoxy)benzaldehyde]
- relative thermodynamic stability from interconversion studies [2]: most thermodynamically stable form relative to Material II
- hygroscopicity indicated by DVS isotherm [3]: low hygroscopicity
- weight gain and loss through the sorption/desorption cycle [3]: 0.7%
- material recovered from the DVS experiment, by XRPD [3]: identified as Compound I Form I

Compound: O=Cc1c(O)cccc1OC[C@@H]1COCCN1C(=O)c1cccnc1CCO [Compound I HCl Form A]
- hygroscopicity indicated by DVS isotherm [3]: significant hygroscopicity
- weight gain through the sorption cycle [3]: 3%
- weight loss upon desorption [3]: 3.3%
- material recovered from the DVS experiment, by XRPD [3]: remained Compound I HCl Form A
- physical stability, XRPD pattern after stress ([1]; 40° C./75% RH for 27 days): no changes were observed in the XRPD pattern

Compound: O=Cc1c(O)cccc1OC[C@@H]1COCCN1C(=O)c1cccnc1CCO [Compound I Material II, (S)-2-hydroxy-6-((4-(2-(2-hydroxyethyl)nicotinoyl)morpholin-3-yl)methoxy)benzaldehyde]
- hygroscopicity indicated by DVS isotherm [3]: significant hygroscopicity above 85% RH
- weight gain and loss through the sorption/desorption cycle [3]: approximately 3.4%
- material recovered from the DVS experiment, by XRPD [3]: identified as Compound I Material II

Compound: O=Cc1c(O)cccc1OC[C@@H]1COCCN1C(=O)c1cccnc1CCO.O=S(=O)(O)c1cccc2c(S(=O)(=O)O)cccc12 [Compound I Napadisylate Form A, (S)-2-hydroxy-6-((4-(2-(2-hydroxyethyl)nicotinoyl)morpholin-3-yl)methoxy)benzaldehyde napadisylate]
- physical stability under vacuum (XRPD) ([1]; 43° C. under vacuum, within 4 days): not physically stable

Compound: O=C(O)C(=O)O.O=Cc1c(O)cccc1OC[C@@H]1COCCN1C(=O)c1cccnc1CCO [Compound I Oxalate Form B, (S)-2-hydroxy-6-((4-(2-(2-hydroxyethyl)nicotinoyl)morpholin-3-yl)methoxy)benzaldehyde oxalate]
- solubility (physchem): > 134 mg/mL
- physical stability under high humidity (XRPD) ([1]; 90% RH, ambient temperature, 11 days): still predominately Compound I Oxalate Form B

Compound: O=Cc1c(O)cccc1OC[C@@H]1COCCN1C(=O)c1cccnc1CCO.O=S(=O)(O)O [Compound I Sulfate Form A, (S)-2-hydroxy-6-((4-(2-(2-hydroxyethyl)nicotinoyl)morpholin-3-yl)methoxy)benzaldehyde sulfate]
- solubility (physchem): > 87 mg/mL
- physical stability under vacuum (XRPD) ([1]; 43° C. under vacuum for 2 days): physically stable
- physical stability under high humidity ([1]; 90% RH, ambient temperature, within 1 day): deliquesces

Compound: O=Cc1c(O)cccc1OC[C@@H]1COCCN1C(=O)c1cccnc1CCO [amorphous Compound I, (S)-2-hydroxy-6-((4-(2-(2-hydroxyethyl)nicotinoyl)morpholin-3-yl)methoxy)benzaldehyde]
- hygroscopicity indicated by DVS isotherm [3]: significant hygroscopicity
- weight gain through the sorption cycle [3]: approximately 10%
- weight loss upon desorption [3]: 7%
- material recovered from the DVS experiment, by XRPD [3]: remained amorphous

Compound: (S)-2-hydroxy-6-((4-(2-(2-hydroxyethyl)nicotinoyl)morpholin-3-yl)methoxy)benzaldehyde edisylate [Compound I Edisylate Form A]
- physical stability upon exposure to ambient conditions ([1]; ambient conditions, relative humidity approximately 57%): very hygroscopic and not stable under ambient conditions
- physical stability on drying in vacuum oven (XRPD) ([1]; damp sample, 43° C. vacuum oven): physical instability

Compound: (S)-2-hydroxy-6-((4-(2-(2-hydroxyethyl)nicotinoyl)morpholin-3-yl)methoxy)benzaldehyde edisylate [Compound I Edisylate Material B]
- physical stability under vacuum (XRPD) ([1]; 44° C. under vacuum): additional unidentified peaks

Source: patent US12473277B2, “Solid forms of a modulator of hemoglobin” (GLOBAL BLOOD THERAPEUTICS, INC., priority 2021, dated 2025)
